How the values were obtained:
Influenza A virus [1] = test: In vitro antiviral activity against Influenza A.; format: functional, organism-based
[2] = molecular target: Neuraminidase (Influenza A virus (A/Puerto Rico/8/1934(H1N1)), UniProt P03468); test: Inhibition of influenza A sialidase in vitro.
Influenza A virus [3] = test: Inhibitory concentration by Plaque reduction assay; range-1.9-12; format: functional, organism-based
Influenza A virus [4] = test: Inhibitory concentration by Plaque reduction assay; range-1.9-20; format: functional, organism-based

Chain of Neuraminidase (Influenza A virus (A/Puerto Rico/8/1934(H1N1)), UniProt P03468) (P03468 whole entry): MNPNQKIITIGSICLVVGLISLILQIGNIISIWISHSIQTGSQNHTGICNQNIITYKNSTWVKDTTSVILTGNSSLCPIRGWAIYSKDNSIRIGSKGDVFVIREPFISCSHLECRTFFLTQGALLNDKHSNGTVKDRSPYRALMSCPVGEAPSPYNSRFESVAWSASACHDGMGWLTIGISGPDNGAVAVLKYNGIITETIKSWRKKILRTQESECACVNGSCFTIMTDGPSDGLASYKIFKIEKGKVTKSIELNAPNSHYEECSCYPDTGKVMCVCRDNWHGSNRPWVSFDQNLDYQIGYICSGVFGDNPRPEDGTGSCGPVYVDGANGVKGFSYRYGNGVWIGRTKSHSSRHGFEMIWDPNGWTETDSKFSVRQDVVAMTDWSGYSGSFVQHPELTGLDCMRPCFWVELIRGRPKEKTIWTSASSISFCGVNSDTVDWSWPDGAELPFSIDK

SMILES	IC50 (Influenza A virus [1]) [ng/mL]	IC50 [2] [nM]	IC50 (Influenza A virus [3]) [ng/mL]	IC50 (Influenza A virus [4]) [ng/mL]
CC(=O)N[C@H]1[C@H]([C@H](OCCC2CCCCC2)[C@H](O)CO)OC(C(=O)O)=C[C@@H]1NC(=N)N.O=C(O)C(F)(F)F	1.9	47.3	–	–
CCCO[C@H](CC)[C@@H]1OC(C(=O)O)=C[C@H](N=C(N)N)[C@H]1NC(C)=O.O=C(O)C(F)(F)F	9	30.9	–	–
CCO[C@H](CC)[C@@H]1OC(C(=O)O)=C[C@H](N=C(N)N)[C@H]1NC(C)=O.O=C(O)C(F)(F)F	16	79.3	–	–
CCCCCCCCO[C@H](CC)[C@@H]1OC(C(=O)O)=C[C@H](N=C(N)N)[C@H]1NC(C)=O.O=C(O)C(F)(F)F	40	31.5	–	–
CC(=O)NCCO[C@@H]([C@@H]1OC(C(=O)O)=C[C@H](N=C(N)N)[C@H]1NC(C)=O)[C@H](O)CO.O=C(O)C(F)(F)F	2.4	18.4	–	–
CC(=O)N[C@H]1[C@H]([C@H](OCC2CCCCC2)[C@H](O)CO)OC(C(=O)O)=C[C@@H]1NC(=N)N.O=C(O)C(F)(F)F	3	67.5	–	–
CCCCCCCCO[C@@H]([C@@H]1OC(C(=O)O)=C[C@H](N=C(N)N)[C@H]1NC(C)=O)[C@H](O)CO.O=C(O)C(F)(F)F	1.8	36.2	–	–
CCCCCCCCCCCCO[C@@H]([C@@H]1OC(C(=O)O)=C[C@H](N=C(N)N)[C@H]1NC(C)=O)[C@H](O)CO.O=C(O)C(F)(F)F	2.2	80.7	–	–
CCCCCO[C@@H]([C@@H]1OC(C(=O)O)=C[C@H](N=C(N)N)[C@H]1NC(C)=O)[C@H](O)CO.O=C(O)C(F)(F)F	2	27.7	–	–
CC(=O)N[C@H]1[C@H]([C@H](OCCO)[C@H](O)CO)OC(C(=O)O)=C[C@@H]1NC(=N)N.O=C(O)C(F)(F)F	1.8	21	–	–
CCCCCCCCCCCCO[C@H](CC)[C@@H]1OC(C(=O)O)=C[C@H](N=C(N)N)[C@H]1NC(C)=O.O=C(O)C(F)(F)F	> 50	48.7	–	–
CCCCCCCCCCCCCCO[C@@H]([C@@H]1OC(C(=O)O)=C[C@H](N=C(N)N)[C@H]1NC(C)=O)[C@H](O)CO.O=C(O)C(F)(F)F	11	408	–	–
CC(=O)N[C@H]1[C@H]([C@H](OCCN=[N+]=[N-])[C@H](O)CO)OC(C(=O)O)=C[C@@H]1NC(=N)N.O=C(O)C(F)(F)F	1.5	28.7	–	–
CCO[C@@H]([C@@H]1OC(C(=O)O)=C[C@H](N=C(N)N)[C@H]1NC(C)=O)[C@H](O)CO	–	55.7	–	–
CC(=O)N[C@H]1[C@H]([C@H](O)[C@H](O)CO)OC(C(=O)O)=C[C@@H]1NC(=N)N.O=C(O)C(F)(F)F [ZANAMIVIR TFA]	–	–	1.9	1.9
CC(=O)N[C@H]1[C@H]([C@H](OCCN)[C@H](O)CO)OC(C(=O)O)=C[C@@H]1NC(=N)N.O=C(O)C(F)(F)F	7.5	97.5	–	–
CCCCCO[C@H](CC)[C@@H]1OC(C(=O)O)=C[C@H](N=C(N)N)[C@H]1NC(C)=O.O=C(O)C(F)(F)F	3.8	18.8	–	–
CCCO[C@@H]([C@@H]1OC(C(=O)O)=C[C@H](N=C(N)N)[C@H]1NC(C)=O)[C@H](O)CO.O=C(O)C(F)(F)F	1.5	62.7	–	–

From ChEMBL document CHEMBL1135181, “Synthesis and anti-influenza virus activity of 7-O-alkylated derivatives related to zanamivir” (Bioorg Med Chem Lett, 2002)
